Experiment [1] deals with IDH1 wt/IDH1 R132H heterodimer (Homo sapiens (Human), UniProt O75874, R132H). The experiment can be described thus: In vitro assay for IDH1m R132H inhibitors, IDH1 wt/IDH1 R132H heterodimer, NADPH depletion (diaphorase/resazurin). The class given is biochemical. Particulars: IDH1 wt/R132H heterodimer, NADPH/NADP, not saturated; read-out: IDH1 wt/R132H NADPH/NADP IC50 not saturated. The gist of the method: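 Read-out is NADPH left after α-KG reduction to 2-HG, measured via resorufin fluorescence after 5 min diaphorase/resazurin step at 25° C. Enzyme is sf9-expressed IDH1wt-his/IDH1R132H-flag heterodimer, pre-incubated 1 hr at room temperature with compound and cofactor. IC50s from DMSO stocks diluted 1:50.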

Experiment [2] concerns the target IDH1 wt/IDH1 R132C heterodimer (Homo sapiens (Human), UniProt O75874, R132C). The experiment can be described thus: In vitro assay for IDH1m R132C inhibitors, IDH1 wt/IDH1 R132C heterodimer, NADPH depletion (diaphorase/resazurin). The class given is biochemical. Particulars: NADPH/NADP. How it is done:
The following describes the experimental procedures that can be used to obtain data on columns 2 and 4 of Table 4 and column 2 of Table 5.
In the primary reaction, the reduction of α-KG acid to 2-HG is accompanied by a concomitant oxidation of NADPH to NADP. The amount of NADPH remaining at the end of the reaction time is measured in a secondary diaphorase/resazurin reaction in which the NADPH is consumed in a 1:1 molar ratio with the conversion of resazurin to the highly fluorescent resorufin.
The mixture of compound, enzyme, and cofactor is pre-incubated at room temperature for 1 hr prior to the addition of alpha-ketoglutarate. To perform the secondary reaction, 10 uL of 1× buffer containing 36 μg/ml diaphorase and […] resazurin is added to the primary reaction and incubated for a further 5 minutes at 25° C. Florescence is read on a Spectramax platereader at Ex 544 Em 590. Compounds or compound dilutions are prepared in 100% DMSO concentration and diluted 1:50 into the final reaction. […] IC50s are determined.
IDH1 or IDH2 wildtype (wt) and mutant heterodimers are expressed and purified by methods known in the art. For example, IDH1wt/R132m heterodimer is expressed and purified as follows. Co-expression of IDH1wt-his and IDH1R132C-flag is carried out in sf9 insect cells. Cells (25 g) are resuspended in 250 ml of 50 mM Tirs, 500 mM NaCl, pH7.4, at 4° C. with stirring. Cells are disrupted with 4 passes through an M-Y110 Micro fluidizer (Microfluidics) set to 500 psi, and then centrifuged at 22,000 rcf for 20 min at 4° C. The supernatant is harvested and loaded at 15 cm/h on a Histrap FF 5*1 ml column (GE) which is equilibrated with 50 mM Tirs, 500 mM NaCl, pH7.4. Host cell contaminants are removed by washing the column with equilibration buffer followed by equilibration buffer containing 20 mM imidazole and 60 mM imidazole to baseline. IDH1wt-his homodimer and IDH1wt-his/IDH1R132C-flag are eluted by equilibration buffer containing 250 mM imidazole. Fractions eluted by 250 mM imidazole are pooled together and loaded at 15 cm/h onto a column pre-packed with 10 ml ANTI-FLAG® M2 Affinity Gel (Sigma), the column is equilibrated with 50 mM Tris, 500 mM NaCl, pH7.4. After washing with equilibration buffer, IDH1wt-his/IDH1R132C-flag heterodimer is eluted by equilibration buffer containing flag peptide (0.2 mg/ml). Aliquots of IDH1wt-his/IDH1R132C-flag are flash frozen in liquid N2 and stored at −80° C. Same conditions are used for the purification of IDH1wt-his/IDH1R132H-flag.
For orientation: Resazurin is reduced to fluorescent resorufin, in cell work by metabolically active cells.

For another experiment, the target named is IDH2 R140Q (Homo sapiens (Human), UniProt P48735, R140Q). Description: In vitro assay for IDH2m R140Q inhibitors, cofactor depletion assay. The class given is biochemical. The following applies: IDH2 R140Q enzyme. The gist of the method: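 Remaining cofactor measured fluorimetrically: diaphorase/resazurin Stop Mix […], halting the reaction. Before that, mutant enzyme and compound sat 1 h at RT, then substrate mix (4 μM NADPH, 1.6 mM α-KG) was added for 16 h at RT.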

The test system of experiment [3] is U87MG pLVX-IDH2 R140Q-neo cells. Description: U87MG pLVX-IDH2 R140Q-neo cell based assay, 2-HG by LC-MS. The following applies: Homo sapiens, U-87 MG.
In experiment [4] the test system is Neurosphere cells (TS603). Description: Cellular assay for IDH1m R132H inhibitors, 2-HG by LC-MS in neurosphere cells (TS603). Format: cell-based. The following applies: 2-HG in media at 48 hours. An outline of the steps:
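TS603 neurosphere cells in NeuroCult medium were dosed with compound (0.25% DMSO final) at 37 C, 5% CO2. After 48 hours, medium 2-HG was measured by LC-MS. At 72 hours, viability was read by CellTiter-Glo luminescence.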

For experiment [5], the target named is IDH1-R132H homodimer enzyme (Homo sapiens (Human), UniProt O75874, R132H). The experiment can be described thus: In vitro assay IDH1-R132H homodimer, NADPH depletion assay with NADPH/NADP preincubation. Format: biochemical. The following applies: 5 μM NADPH and 37.5 μM NADP. The gist of the method: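 Compounds were added from DMSO at 50× final concentration, and the mutant enzyme was incubated 60 min at room temperature after starting with a substrate mix holding NADPH and 5 mM alpha-ketoglutarate. Residual cofactor, read by fluorescence after excess diaphorase and resazurin, reflects enzyme turnover.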

A further experiment relates to HT1080 cells. The experiment can be described thus: Cellular assay for IDH1m R132C inhibitors, 2-HG by LC-MS in HT1080 cells. The class given is cell-based. Particulars: Homo sapiens, HT-1080. The gist of the method: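 2-HG levels were measured by LC-MS in culture medium sampled 48 h after compound addition (0.2% DMSO) to HT1080 cells seeded overnight at 5000 cells/well. A CellTiter-Glo luminescence read at 72 h gave cell viability.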

pIC50: −log10 of the molar value.

IDH1 wt/IDH1 R132C heterodimer, sequence (O75874 whole entry R132C): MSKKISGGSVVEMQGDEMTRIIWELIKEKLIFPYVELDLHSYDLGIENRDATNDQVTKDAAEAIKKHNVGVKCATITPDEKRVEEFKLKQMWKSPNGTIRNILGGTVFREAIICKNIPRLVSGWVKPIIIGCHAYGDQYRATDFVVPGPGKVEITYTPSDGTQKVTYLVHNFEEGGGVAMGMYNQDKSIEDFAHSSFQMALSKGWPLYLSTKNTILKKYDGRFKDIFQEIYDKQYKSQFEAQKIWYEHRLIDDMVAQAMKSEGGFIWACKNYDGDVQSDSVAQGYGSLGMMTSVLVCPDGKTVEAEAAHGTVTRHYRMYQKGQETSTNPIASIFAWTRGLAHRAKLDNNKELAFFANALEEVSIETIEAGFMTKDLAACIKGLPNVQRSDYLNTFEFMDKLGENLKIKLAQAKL
IDH1 wt/IDH1 R132C heterodimer, sequence (O75874 whole entry, stated change not applied): as the sequence (O75874 whole entry R132C) above, with C132R counted along it
IDH2 R140Q, sequence (P48735 40-452 R140Q): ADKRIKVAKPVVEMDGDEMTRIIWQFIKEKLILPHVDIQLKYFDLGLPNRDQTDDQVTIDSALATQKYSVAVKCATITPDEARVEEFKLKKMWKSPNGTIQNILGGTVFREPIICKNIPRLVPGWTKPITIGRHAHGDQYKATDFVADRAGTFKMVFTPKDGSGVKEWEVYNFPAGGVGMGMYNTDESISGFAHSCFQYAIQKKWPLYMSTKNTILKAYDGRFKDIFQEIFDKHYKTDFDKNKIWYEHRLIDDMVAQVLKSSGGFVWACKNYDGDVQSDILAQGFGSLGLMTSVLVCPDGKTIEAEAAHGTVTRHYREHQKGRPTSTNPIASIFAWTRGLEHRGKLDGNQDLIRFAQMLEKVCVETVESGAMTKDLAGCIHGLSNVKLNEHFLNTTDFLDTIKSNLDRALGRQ
IDH1 wt/IDH1 R132H heterodimer, sequence (O75874 whole entry R132H): as the sequence (O75874 whole entry R132C) above, with C132H counted along it
IDH1 wt/IDH1 R132H heterodimer, sequence (O75874 whole entry, stated change not applied): as the sequence (O75874 whole entry R132C) above, with C132R counted along it
IDH1-R132H homodimer enzyme, sequence (O75874 whole entry R132H): as the sequence (O75874 whole entry R132C) above, with C132H counted along it

Take `FC1(F)CCC(Nc2nc(NC3CCNC3)nc(-c3cccc(C(F)(F)F)n3)n2)C1` (centres unmarked) [Compound 91]: the pIC50 is less than 6.00 in experiment [1] and not above 6.00 in experiment [2].

For the compound `Fc1cc(F)cc(Nc2nc(NC3CCC(F)(F)CC3)nc(-c3cccc(C(F)(F)F)n3)n2)c1` [Compound 125], the pIC50 (in experiment [1]; in experiment [2]; against IDH2 R140Q; in experiment [3]; in experiment [4]) was more than 7.30 throughout.

Consider `C[C@@H](Nc1nc(NC2CC3(C2)CC(F)(F)C3)nc(-c2cccc(C(F)(F)F)n2)n1)C1CC1` [Compound 58], for which the pIC50 in experiment [1] and in experiment [2] was more than 7.30 in each case.

For the compound `FC1(F)CCC(Nc2nc(NC3CCC(F)(F)CC3)nc(-c3cccc(OC(F)(F)F)n3)n2)CC1` [Compound 296], the pIC50 in experiment [1] is 6.00 to 7.00; in experiment [2], not above 6.00; in experiment [5], less than 6.00.

For `Fc1ccc(F)c(-c2nc(NC3CCC(F)(F)CC3)nc(NC3CCC(F)(F)CC3)n2)n1` [Compound 276], the pIC50 was 6.00 to 7.00 in experiment [1], 6.00 to 7.00 in experiment [2] and less than 6.00 in experiment [5].

Regarding `Cc1nc(-c2nc(NC3CC(F)(F)C3)nc(NC3CC(F)(F)C3)n2)co1` [Compound 301], the pIC50 was 6.00 to 7.00 in experiment [1], not above 6.00 in experiment [2] and less than 6.00 in experiment [5].

As to `Fc1cc(F)cc(Nc2nc(NC3CCC(F)(F)CC3)nc(-c3nc(F)ccc3F)n2)c1` [Compound 260], the pIC50 is 6.00 to 7.00 in experiment [1]; 7.00 to 7.30 in experiment [2]; more than 7.30 against IDH2 R140Q; less than 6.00 in the experiment on HT1080 cells; more than 7.30 in experiment [3].

On to `COc1ccc(F)c(-c2nc(NC3CCC(F)(F)CC3)nc(NC3CCC(F)(F)CC3)n2)n1` [Compound 321], for which the values for the pIC50 in experiment [1], in experiment [2] and in experiment [5] were less than 6.00, not above 6.00 and less than 6.00, respectively.

As to `CC(C)(C)OC(=O)N1CCC(Nc2nc(NC3CCC(F)(F)C3)nc(-c3cccc(C(F)(F)F)n3)n2)C1` (centres unmarked) [Compound 90], the pIC50 in experiment [1] is 6.00 to 7.00; in experiment [2], 7.00 to 7.30.

Regarding `CS(=O)(=O)N1CCC(Nc2nc(NC3CCC(F)(F)C3)nc(-c3cccc(C(F)(F)F)n3)n2)C1` (centres unmarked) [Compound 56], the pIC50 was 7.00 to 7.30 in experiment [1] and more than 7.30 in experiment [2].

Take `C[C@@H](Nc1nc(N[C@H](C)C2CC2)nc(-n2cc(I)cn2)n1)C1CC1` [Compound 279]: the pIC50 in experiment [1] is 6.00 to 7.00; in experiment [2], 6.00 to 7.00; in experiment [5], less than 6.00; at IDH2 R140Q, 6.00 to 7.00; in experiment [3], 6.00 to 7.00.

As to `N#Cc1ccc2c(c1)CC(Nc1nc(NC3CCC(F)(F)C3)nc(-c3cccc(C(F)(F)F)n3)n1)C2` (centres unmarked) [Compound 242], the pIC50 in experiment [1] was 7.00 to 7.30; in experiment [2], 7.00 to 7.30; in experiment [5], 6.00 to 7.00.

Take `CC(=O)N1CCC(Nc2nc(NC3CCC(F)(F)C3)nc(-c3cccc(C(F)(F)F)n3)n2)C1` (centres unmarked) [Compound 55]: the pIC50 in experiment [1] was 6.00 to 7.00; in experiment [2], 7.00 to 7.30.

For the compound `FC1(F)CCC(Nc2nc(NC3CCC(F)(F)CC3)nc(-n3cc(Cl)cn3)n2)CC1` [Compound 302], the pIC50 was 6.00 to 7.00 in experiment [1]; 6.00 to 7.00 in experiment [2]; less than 6.00 in experiment [5]; 6.00 to 7.00 against IDH2 R140Q; 6.00 to 7.00 in experiment [3].

Take `FC1(F)CCC(Nc2nc(NC3CCC(F)(F)CC3)nc(-c3c[nH]nc3C(F)(F)F)n2)CC1` [Compound 297]: the pIC50 in experiment [1] was 6.00 to 7.00; in experiment [2] it was 6.00 to 7.00; in experiment [5], less than 6.00.

With `FC1(F)CCC(Nc2nc(NC3CCC(F)(F)CC3)nc(-c3ccnc(C(F)(F)F)n3)n2)CC1` [Compound 270], the pIC50 in experiment [1] was 6.00 to 7.00; in experiment [2] it was 6.00 to 7.00; in experiment [5], less than 6.00; against IDH2 R140Q, 6.00 to 7.00; in experiment [3], 6.00 to 7.00.

On to `Cc1cc(-c2nc(NC3CC(F)(F)C3)nc(NC3CC(F)(F)C3)n2)no1` [Compound 311], for which the pIC50 in experiment [1] was less than 6.00; in experiment [2], not above 6.00; in experiment [5] it was less than 6.00.

Take `CC(C)(C)OC(=O)N1CCC(Nc2nc(NC3CCC(F)(F)C3)nc(-c3cccc(C(F)(F)F)n3)n2)C1` (centres unmarked) [Compound 53]: the pIC50 is 6.00 to 7.00 in experiment [1] and 7.00 to 7.30 in experiment [2].

On to `Nc1ccc(F)c(-c2nc(Nc3cc(F)cc(F)c3)nc(NC3CCC(F)(F)CC3)n2)n1` [Compound 165], for which the pIC50 is more than 7.30 in experiment [1]; 7.00 to 7.30 in experiment [5]; more than 7.30 against IDH2 R140Q; 6.00 to 7.00 in the experiment with HT1080 cells; more than 7.30 in experiment [3]; more than 7.30 in experiment [4].

As for `N#Cc1cc(F)cc(Nc2nc(NC3CCC(F)(F)C3)nc(-c3nc(C(F)(F)F)cs3)n2)c1` (centres unmarked) [Compound 132], the pIC50 in experiment [1] was more than 7.30; in experiment [5], more than 7.30; against IDH2 R140Q, more than 7.30; with HT1080 cells it was 6.00 to 7.00; in experiment [3], more than 7.30; in experiment [4], more than 7.30.

With `CC(F)(F)c1nc(-c2nc(NC3CC(F)(F)C3)nc(NC3CC(F)(F)C3)n2)cs1` [Compound 209], the pIC50 was more than 7.30 in experiment [1]; 6.00 to 7.00 in experiment [5]; more than 7.30 on IDH2 R140Q; 6.00 to 7.00 in the experiment with HT1080 cells; more than 7.30 in experiment [3]; more than 7.30 in experiment [4].

On to `C[C@@H](Nc1nc(N[C@H](C)C2CC2)nc(-c2cccnc2)n1)C1CC1` [Compound 92, N^2,N^4-bis((R)-1-cyclopropylethyl)-6-(pyridin-3-yl)-1,3,5-triazine-2,4-diamine], for which the values for the pIC50 in experiment [1] and in experiment [2] were less than 6.00 and not above 6.00, respectively.

As for `CC(Nc1nc(Nc2cc(F)cc(C#N)c2)nc(-n2ccc(C(F)(F)F)n2)n1)C(F)(F)F` (centres unmarked) [Compound 119], the pIC50 was more than 7.30 in experiment [1]; more than 7.30 in experiment [5]; more than 7.30 at IDH2 R140Q; 7.00 to 7.30 in the experiment on HT1080 cells; more than 7.30 in experiment [3]; more than 7.30 in experiment [4].

Consider `FC1(F)CCC(Nc2nc(NC3CCOC3)nc(-c3cccc(C(F)(F)F)n3)n2)C1` (centres unmarked) [Compound 52], for which the results for the pIC50 in experiment [1] and in experiment [2] were 7.00 to 7.30 and more than 7.30, respectively.

(Values after patent publication US10028961B2, “Therapeutically active compounds and their methods of use” (AGIOS PHARMACEUTICALS, INC., priority 2013, dated 2018).)
